Measurements from patent publication US20260199299A1, “BETA CARBOLINES AS TOPICAL ANTI-INFLAMMATORY AGENTS FOR APPLICATION TO MUCOUS MEMBRANES” (President and Fellows of Harvard College, priority 2022, published 2026).

System: NFκB
Test: NFκB induction in primary monocytes (FIG. 9A-9C)
Type: cell-based

In the case of `OCc1ccc(-c2nccc3c2[nH]c2ccccc23)o1` [Compound 8], the “suppression of NFκB induction in primary monocytes” value is reported as “suppression of NFκB induction”.
